Tests used:
Test in all cases: relative viability (nuclei count vs DMSO), 5 days (fraction); higher = more cells survive
A-427 = tested on: A-427
In short: (§1)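 Relative viability was taken as the ratio of nuclei in treated wells to nuclei in vehicle wells. Lung cancer cell lines in 1536-well plates received compounds by pin tool one day after seeding, either one drug alone or a fixed anchor-drug dose plus five library-drug doses (not always all listed) in √10 steps. Nuclei were counted on 4× images after 5 days of treatment, and values are medians of duplicate plates.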

COR-L 105 = tested on: COR-L 105
In short: as §1

ChaGo-K-1 = tested on: ChaGo-K-1
In short: as §1

EKVX = tested on: EKVX
In short: as §1

EMC-BAC-2 = tested on: EMC-BAC-2
In short: as §1

H3255 = tested on: H3255
In short: as §1

HCC-366 = tested on: HCC-366
In short: as §1

LOU-NH91 = tested on: LOU-NH91
In short: as §1

NCI-H1563 = tested on: NCI-H1563
In short: as §1

NCI-H1666 = tested on: NCI-H1666
In short: as §1

NCI-H1734 = tested on: NCI-H1734
In short: as §1

NCI-H1755 = tested on: NCI-H1755
In short: as §1

NCI-H1975 = tested on: NCI-H1975
In short: as §1

NCI-H23 = tested on: NCI-H23
In short: as §1

NCI-H441 = tested on: NCI-H441
In short: as §1

NCI-H520 = tested on: NCI-H520
In short: as §1

NCI-H596 = tested on: NCI-H596
In short: as §1

PC-3 [JPC-3] = tested on: PC-3 [JPC-3]
In short: as §1

SMILES: COc1cc2nccc(Oc3ccc(NC(=O)Nc4cc(C)on4)c(Cl)c3)c2cc1OC [Tivozanib] + CC(C)C[C@H](NC(=O)[C@H](Cc1ccccc1)NC(=O)c1cnccn1)B(O)O [Bortezomib] (partner 0.002 µM)
- relative viability (A-427; first compound 0.005 µM): 0.988
- relative viability (A-427; first compound 0.01581 µM): 1.03
- relative viability (A-427; first compound 0.05 µM): 0.962
- relative viability (A-427; first compound 0.1581 µM): 0.893
- relative viability (A-427; first compound 0.5 µM): 0.932
- relative viability (COR-L 105; first compound 0.01581 µM): 0.751
- relative viability (COR-L 105; first compound 0.05 µM): 0.759
- relative viability (COR-L 105; first compound 0.1581 µM): 0.702
- relative viability (COR-L 105; first compound 0.5 µM): 0.681
- relative viability (ChaGo-K-1; first compound 0.005 µM): 0.907
- relative viability (ChaGo-K-1; first compound 0.01581 µM): 1.08
- relative viability (ChaGo-K-1; first compound 0.05 µM): 1
- relative viability (ChaGo-K-1; first compound 0.1581 µM): 0.969
- relative viability (ChaGo-K-1; first compound 0.5 µM): 0.935
- relative viability (EKVX; first compound 0.005 µM): 0.95
- relative viability (EKVX; first compound 0.01581 µM): 0.924
- relative viability (EKVX; first compound 0.05 µM): 1.11
- relative viability (EKVX; first compound 0.1581 µM): 0.987
- relative viability (EKVX; first compound 0.5 µM): 1.02
- relative viability (EMC-BAC-2; first compound 0.005 µM): 1.05
- relative viability (EMC-BAC-2; first compound 0.01581 µM): 1.07
- relative viability (EMC-BAC-2; first compound 0.05 µM): 1.1
- relative viability (EMC-BAC-2; first compound 0.1581 µM): 0.769
- relative viability (EMC-BAC-2; first compound 0.5 µM): 1.08
- relative viability (H3255; first compound 0.005 µM): 0.739
- relative viability (H3255; first compound 0.01581 µM): 0.823
- relative viability (H3255; first compound 0.05 µM): 0.795
- relative viability (H3255; first compound 0.1581 µM): 0.582
- relative viability (H3255; first compound 0.5 µM): 0.697
- relative viability (HCC-366; first compound 0.005 µM): 1.01
- relative viability (HCC-366; first compound 0.01581 µM): 1.05
- relative viability (HCC-366; first compound 0.05 µM): 1.06
- relative viability (HCC-366; first compound 0.1581 µM): 1.05
- relative viability (HCC-366; first compound 0.5 µM): 1.05
- relative viability (LOU-NH91; first compound 0.005 µM): 0.5
- relative viability (LOU-NH91; first compound 0.01581 µM): 0.489
- relative viability (LOU-NH91; first compound 0.05 µM): 0.722
- relative viability (LOU-NH91; first compound 0.1581 µM): 0.561
- relative viability (LOU-NH91; first compound 0.5 µM): 0.499
- relative viability (NCI-H1563; first compound 0.005 µM): 0.766
- relative viability (NCI-H1563; first compound 0.01581 µM): 0.964
- relative viability (NCI-H1563; first compound 0.05 µM): 0.896
- relative viability (NCI-H1563; first compound 0.1581 µM): 0.776
- relative viability (NCI-H1563; first compound 0.5 µM): 0.829
- relative viability (NCI-H1666; first compound 0.005 µM): 0.746
- relative viability (NCI-H1666; first compound 0.01581 µM): 0.792
- relative viability (NCI-H1666; first compound 0.05 µM): 0.835
- relative viability (NCI-H1666; first compound 0.1581 µM): 0.74
- relative viability (NCI-H1666; first compound 0.5 µM): 0.875
- relative viability (NCI-H1734; first compound 0.005 µM): 0.757
- relative viability (NCI-H1734; first compound 0.01581 µM): 0.904
- relative viability (NCI-H1734; first compound 0.05 µM): 1.01
- relative viability (NCI-H1734; first compound 0.1581 µM): 0.677
- relative viability (NCI-H1734; first compound 0.5 µM): 0.854
- relative viability (NCI-H1755; first compound 0.005 µM): 0.911
- relative viability (NCI-H1755; first compound 0.01581 µM): 0.935
- relative viability (NCI-H1755; first compound 0.05 µM): 1.01
- relative viability (NCI-H1755; first compound 0.1581 µM): 0.577
- relative viability (NCI-H1755; first compound 0.5 µM): 0.86
- relative viability (NCI-H1975; first compound 0.005 µM): 0.376
- relative viability (NCI-H1975; first compound 0.01581 µM): 0.418
- relative viability (NCI-H1975; first compound 0.05 µM): 0.361
- relative viability (NCI-H1975; first compound 0.1581 µM): 0.363
- relative viability (NCI-H1975; first compound 0.5 µM): 0.257
- relative viability (NCI-H23; first compound 0.005 µM): 0.946
- relative viability (NCI-H23; first compound 0.01581 µM): 0.975
- relative viability (NCI-H23; first compound 0.05 µM): 1.1
- relative viability (NCI-H23; first compound 0.1581 µM): 0.785
- relative viability (NCI-H23; first compound 0.5 µM): 0.839
- relative viability (NCI-H441; first compound 0.005 µM): 0.43
- relative viability (NCI-H441; first compound 0.01581 µM): 0.332
- relative viability (NCI-H441; first compound 0.05 µM): 0.332
- relative viability (NCI-H441; first compound 0.1581 µM): 0.453
- relative viability (NCI-H441; first compound 0.5 µM): 0.34
- relative viability (NCI-H520; first compound 0.005 µM): 0.575
- relative viability (NCI-H520; first compound 0.01581 µM): 0.693
- relative viability (NCI-H520; first compound 0.05 µM): 0.645
- relative viability (NCI-H520; first compound 0.1581 µM): 0.519
- relative viability (NCI-H520; first compound 0.5 µM): 0.605
- relative viability (NCI-H596; first compound 0.005 µM): 1.03
- relative viability (NCI-H596; first compound 0.01581 µM): 0.887
- relative viability (NCI-H596; first compound 0.05 µM): 0.918
- relative viability (NCI-H596; first compound 0.1581 µM): 0.993
- relative viability (NCI-H596; first compound 0.5 µM): 1.08
- relative viability (PC-3 [JPC-3]; first compound 0.005 µM): 0.82
- relative viability (PC-3 [JPC-3]; first compound 0.01581 µM): 0.855
- relative viability (PC-3 [JPC-3]; first compound 0.05 µM): 0.847
- relative viability (PC-3 [JPC-3]; first compound 0.1581 µM): 0.835
- relative viability (PC-3 [JPC-3]; first compound 0.5 µM): 0.794

From the supplement of paper PMC10307832
